Laboratory results as given in ChEMBL document CHEMBL1201862, “PubChem BioAssay data set” (2004).
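The compound was tested at five concentrations on cells cultured in 96-well plates, with a 48-hour exposure period. GI50 = concentration required for 50% inhibition of growth.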 Activity calls are given as the source filed them. No stated cut-off is given here; in the data, active = GI50 up to about 1.1 µM and inactive = higher.

What was measured:
Experiment in all cases: growth of human tumour cells (NCI), 48 h
[1] = tested on: OVCAR-8
[2] = tested on: UACC-62
[3] = tested on: NCI-H522
[4] = tested on: SR
[5] = tested on: LOX IMVI
[6] = tested on: MCF7
[7] = tested on: M14
[8] = tested on: HCC 2998
[9] = tested on: A549
[10] = tested on: RXF 393
[11] = tested on: SF-268
[12] = tested on: HOP-92
[13] = tested on: NCI-H460
[14] = tested on: UO-31
[15] = tested on: 786-0
[16] = tested on: OVCAR-5
[17] = tested on: Hs-578T
[18] = tested on: SW-620
[19] = tested on: SF-539
[20] = tested on: SNB-75
[21] = tested on: DU-145
[22] = tested on: PC-3
[23] = tested on: BT-549
[24] = tested on: NCI-H226
[25] = tested on: SNB-19
[26] = tested on: RPMI-8226
[27] = tested on: MDA-MB-231
[28] = tested on: SF-295
[29] = tested on: TK-10
[30] = tested on: SK-MEL-28
[31] = tested on: SN12C
[32] = tested on: A498
[33] = tested on: EKVX
[34] = tested on: SK-MEL-5
[35] = tested on: NCI-H23
[36] = tested on: KM12
[37] = tested on: CCRF-CEM
[38] = tested on: OVCAR-3
[39] = tested on: HOP-62
[40] = tested on: HL-60
[41] = tested on: U-251
[42] = tested on: CAKI-1
[43] = tested on: HCT-116
[44] = tested on: ACHN
[45] = tested on: Malme-3M
[46] = tested on: MDA-MB-435
[47] = tested on: HT-29
[48] = tested on: HCT-15
[49] = tested on: SK-OV-3
[50] = tested on: K562
[51] = tested on: SK-MEL-2
[52] = tested on: T47D
[53] = tested on: IGROV-1
[54] = tested on: OVCAR-4
[55] = tested on: UACC-257
[56] = tested on: MOLT-4
[57] = tested on: COLO 205

Measured: GI50

O=C1Nc2ccc(Br)cc2/C1=C/C(=O)c1ccccc1
2.49 µM: [48]
inactive: [1] 2.1 µM | [2] 16 µM | [3] 2.22 µM | [4] 4.37 µM | [5] 1.93 µM | [6] 4.18 µM | [7] 11.1 µM | [8] 15.1 µM | [9] 16.1 µM | [10] 1.95 µM | [11] 19.5 µM | [12] 4.13 µM | [13] 18.2 µM | [14] 2.49 µM | [15] 1.67 µM | [16] 22.5 µM | [17] 17.7 µM | [18] 2.25 µM | [19] 6.08 µM | [20] 17.3 µM | [21] 10.2 µM | [22] 9.38 µM | [23] 8.59 µM | [24] 13.9 µM | [25] 19.4 µM | [26] 2.46 µM | [27] 15.5 µM | [28] 17.8 µM | [29] 1.82 µM | [30] 14.8 µM | [31] 4.2 µM | [32] 18.6 µM | [33] 14.5 µM | [34] 16.7 µM | [35] 10.2 µM | [36] 7.83 µM | [37] 1.9 µM | [38] 6.82 µM | [39] 22.7 µM | [40] 2.83 µM | [41] 17.9 µM | [42] 7.74 µM | [43] 4.22 µM | [44] 1.87 µM | [45] 6.37 µM | [46] 16.2 µM | [47] 1.59 µM | [49] 17.6 µM | [50] 5.57 µM | [51] 16 µM | [52] 14.7 µM | [53] 3.67 µM | [54] 13.7 µM | [55] 15.1 µM | [56] 2.64 µM | [57] 2.11 µM
